The NIST ThermoML archive (doi:10.1016/j.jct.2004.12.011)
Values joined by “and” are separate entries in the source; they are usually repeats but may differ in a detail not shown here. Equal entries are not always repeated. Numbers after ± are expanded uncertainties.

Legend:
[1] = Molar enthalpy of transition or fusion; settings: DSC
[2] = DTA
[3] = molar enthalpy of vaporization or sublimation; settings: 298.15 K; Crystal 1; DSC

| Compound | Molar enthalpy of transition or fusion ([1]; Crystal 1) | Molar enthalpy of transition or fusion ([1]; Crystal 2) | Triple point temperature ([2]; Crystal 1) | Triple point temperature ([2]; Crystal 2) | molar enthalpy [3] | Molar enthalpy of transition or fusion ([1]; Crystal 3) | Triple point temperature ([2]; Crystal 3) |
| --- | --- | --- | --- | --- | --- | --- | --- |
| O=C(O)CCCC(=O)O [1,5-pentanedioic acid] | 4.49 ± 0.143 kcal/mol | 0.55 ± 0.143 kcal/mol | 363.9 ± 13 K | 340.5 ± 3.6 K | 28.5 ± 1.53 kcal/mol | – | – |
| O=C(O)CCCCC(=O)O [1,6-hexanedioic acid] | 8.05 ± 0.239 kcal/mol | – | 419 ± 2.8 K | – | – | – | – |
| O=C(O)CCCCCC(=O)O [1,7-heptanedioic acid] | 5.66 ± 0.598 kcal/mol | – | 368.2 ± 3.2 K | 366.3 ± 2.8 K | 31.8 ± 1.7 kcal/mol | 0.359 ± 0.143 kcal/mol | 337.7 ± 3.2 K |
| O=C(O)CCCCCCCCCCCCC(=O)O [1,12-dodecanedicarboxylic acid] | 13.5 ± 0.813 kcal/mol | – | 397.3 ± 0.5 K | – | 41.8 ± 2.22 kcal/mol | – | – |
| O=C(O)CCC(=O)O [butanedioic acid] | 8.13 ± 0.239 kcal/mol | – | 455.2 ± 2.4 K | – | – | – | – |
| O=C(O)CCCCCCCCCCCCCCC(=O)O [hexadecanedioic acid] | 12.5 ± 0.263 kcal/mol | – | 395.4 ± 1.3 K | – | – | – | – |

More lines, now with the values ahead:

| Molar enthalpy of transition or fusion ([1]; Crystal 1) | Molar enthalpy of transition or fusion ([1]; Crystal 2) | Triple point temperature ([2]; Crystal 1) | Triple point temperature ([2]; Crystal 2) | molar enthalpy [3] | Molar enthalpy of transition or fusion ([1]; Crystal 3) | Triple point temperature ([2]; Crystal 3) | Compound |
| --- | --- | --- | --- | --- | --- | --- | --- |
| 7.34 ± 0.239 kcal/mol | 2.17 ± 0.0717 kcal/mol | 413.2 ± 0.5 K | 403.6 ± 0.5 K | 36.1 ± 1.94 kcal/mol | 0.478 ± 0.382 kcal/mol | 355.9 ± 1.6 K | O=C(O)CCCCCCC(=O)O [1,8-octanedioic acid] |
| 7.1 ± 0.454 kcal/mol | 0.167 ± 0.143 kcal/mol | 372.4 ± 2.4 K | 339.8 ± 8.4 K | 34.5 ± 1.84 kcal/mol | 0.00239 kcal/mol | 330.6 ± 0.5 K | O=C(O)CCCCCCCC(=O)O [1,9-nonanedioic acid] |
| 11.1 ± 2.39 kcal/mol | 0.0956 ± 0.0478 kcal/mol | 403.9 ± 0.9 K | 370.3 ± 0.5 K | – | – | – | O=C(O)CCCCCCCCC(=O)O [1,10-decanedioic acid] |
| 9.85 ± 0.789 kcal/mol | 0.382 ± 0.239 kcal/mol | 380.1 ± 1.6 K | 355.3 ± 0.9 K | 39.1 kcal/mol and 39.3 kcal/mol | – | – | O=C(O)CCCCCCCCCC(=O)O [1,11-undecanedioic acid] |
| 11.9 ± 0.574 kcal/mol | -0.0239 ± 0.0956 kcal/mol | 400.3 ± 1.3 K | 387 ± 1 K | 41 ± 2.17 kcal/mol | 0.0143 ± 0.0359 kcal/mol | 359.5 ± 9.6 K | O=C(O)CCCCCCCCCCC(=O)O [1,12-dodecanedioic acid] |
| 11.8 ± 0.239 kcal/mol | – | 386.3 ± 2.8 K | – | – | – | – | O=C(O)CCCCCCCCCCCC(=O)O [tridecanedioic acid] |
